Test results as given in patent US8273724B2, “Melanoma antigens and their use in diagnostic and therapeutic methods” (The United States of America, as represented by the …, priority 1994, dated 2012).
Where a SMILES comes first, the peptide text is derived from it.

Assays:
[1] = tested on: HLA-A2.1+ T2 cell line; experiment: 51Cr release cytotoxicity assay: TIL lysis of T2 cells preincubated with synthetic MART-1 peptides (Example 2); format: cell-based, human
[2] = tested on: 624mel melanoma cell line; experiment: Induction of peptide specific CTL from PBL, 51Cr release against melanoma cells (Example 5); format: cell-based, human; details: for % specific lysis by PBL stimulated with the peptide: target 624mel, E:T = 3D40:1; for recognition and lysis of original epitopes and melanoma tumor cells (624 mel) by PBL stimulated with the peptide, compared with natural epitopes: PBL stimulated with autologous PBMC pulsed with peptide
Procedure: (§1) Induction of peptide specific CTL PBMC were separated from peripheral blood of HLA-A2+ melanoma patients and normal donors by centrifugation on Ficoll-Hypaque gradients and used as fresh or cryopreserved samples. […] Two days later, 12 IU/ml interleukin 2 (IL-2) (Chiron Co., Emeryville, Calif.) were added to the cultures. Lymphocytes were then restimulated weekly as follows: responder cells were harvested, washed once and replated in 24-well plates at a concentration of 2.5×10^5 cells/ml in CM. Autologous PBMC were thawed, washed twice in PBS, resuspended at 5-8×10^6 cells/ml in CM and pulsed with 1 ug/ml peptide in 15-ml conical tubes (5 ml/tube) for 3 hours at 37° C. These PBMC (stimulators) were then irradiated at 3000 rads, washed once in PBS and added to the responder cells at responder:stimulator ratios ranging between 1:3 and 1:10. The next day, 12 IU/ml IL-2 were added to the cultures. The activity of these CTL was tested by cytotoxicity assays after at least 2 rounds (14 days) of peptide stimulation. To generate CTL from TIL cultures, the dissociated tumor suspension were cultured for 1-2 days in 10% FCS RPMI-1640 medium to allow tumor cell adherence. The lymphocytes, recovered from the non-adherent fraction, were used for the induction of peptide specific CTL as described above.
(§2) Assessment of antigen recognition by CTL. ^51Cr release cytotoxic assays were performed to detect the recognition of peptide and melanoma cells by CTL. To analyze peptide recognition, T2 cell lines were preincubated for 2 h at 37° C. with 1 ug/ml peptide, washed and used as target cells in a ^51Cr release cytotoxic assay. The melanoma lines 624mel was established in our laboratory (See Example 1).

[3] = tested on: T2 cells; experiment: Induction of peptide specific CTL from PBL, 51Cr release against T2 cells with or without peptide (Example 5); format: cell-based, human; details: E:T = 3D40:1
Procedure: as §1, §2

[4] = tested on: T2 cell lines preincubated with peptide; experiment: Recognition of modified peptides by natural epitope (M9-2, G9-154, G9-209, G9-280) reactive T-cells, 51Cr release on peptide-pulsed T2 cells (Example 5); format: cell-based, human
How it was run: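 T2 target cells were pulsed with 1 ug/ml peptide for 2 h at 37° C., then washed. CTL recognition was measured by ^51Cr release cytotoxicity.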

[5] = molecular target: HLA-A2.1 (Homo sapiens, UniProt P04439, D140Y/D185E/D98H/E176V/E277Q/G131W/G231S/I119V/I121R/I166T/I218V/L300P/L318F/N151K/N90K/P208A/P217A/Q86G/Q94H/R138H/R169H/T345S); experiment: HLA-A2.1 binding assay of modified peptides, inhibition of radiolabeled Hbc 18-27 (Example 5)
[6] = after 4 stimulations (Table 18)
[7] = target T2 + G9-154-2I, after 4 stimulations
[8] = target T2 + G9-154, after 4 stimulations
[9] = target T2, after 4 stimulations (Table 18)

## CC[C@H](C)[C@H](NC(=O)CN)C(=O)NCC(=O)N[C@H](C(=O)N[C@@H](CC(C)C)C(=O)N[C@H](C(=O)N[C@H](C(=O)N[C@H](C(=O)N[C@@H](CC(C)C)C(=O)O)[C@@H](C)CC)C(C)C)[C@@H](C)O)[C@@H](C)CC [M9-3] (H-GIGILTVIL-OH)
[1]; T2 + peptide 10 ug/ml, effector TIL 660, E:T 40:1, 4 h
  % specific lysis: 0%
[1]; T2 + peptide 10 ug/ml, effector TIL 1074, E:T 40:1, 4 h
  % specific lysis: 10%
[1]; T2 + peptide 10 ug/ml, effector TIL 1235, E:T 40:1, 4 h
  % specific lysis: 20%
[1]; T2 + peptide 10 ug/ml, effector TIL clone A42, E:T 20:1, 4 h
  % specific lysis: 18%
[1]; purified peptide 1 ug/ml, TIL 501, E:T 40:1
  % specific lysis: 5%
[1]; purified peptide 1 ug/ml, TIL 620, E:T 40:1
  % specific lysis: 25%
[1]; purified peptide 1 ug/ml, TIL 660, E:T 40:1
  % specific lysis: 0%
[1]; purified peptide 1 ug/ml, TIL 1074, E:T 40:1
  % specific lysis: 1%
[1]; purified peptide 1 ug/ml, TIL 1088, E:T 40:1
  % specific lysis: 19%
[1]; purified peptide 1 ug/ml, TIL 1128, E:T 40:1
  % specific lysis: 0%
[1]; purified peptide 1 ug/ml, TIL 1143, E:T 40:1
  % specific lysis: 1%
[1]; purified peptide 1 ug/ml, TIL 1200, E:T 40:1
  % specific lysis: −2%
[1]; purified peptide 1 ug/ml, TIL 1235, E:T 40:1
  % specific lysis: 0%
[1]; purified peptide 1 ug/ml, TIL 1363, E:T 40:1
  % specific lysis: −2%
[1]; purified peptide 1 ug/ml, clone A42, E:T 20:1
  % specific lysis: −4%
[1]; purified peptides, titration (FIG. 2)
  recognition by either A42 or TIL1235: not recognized

## CC(C)[C@H](NC(=O)[C@H](CCC(N)=O)NC(=O)[C@H](Cc1c[nH]c2ccccc12)NC(=O)[C@H](Cc1ccc(O)cc1)NC(=O)[C@H](CCC(N)=O)NC(=O)CNC(=O)[C@H](Cc1c[nH]c2ccccc12)NC(=O)[C@@H](NC(=O)[C@@H](N)CCCCN)[C@@H](C)O)C(=O)O [G9154]
[2]; [6]
  % specific lysis by PBL stimulated with the peptide: 5%
[3]; [7]
  % specific lysis by PBL stimulated with the peptide: 8%
[3]; [8]
  % specific lysis by PBL stimulated with the peptide: 14%
[3]; [9]
  % specific lysis by PBL stimulated with the peptide: 11%
[4]
  Recognition by G9-154 reactive T-cell: + (+, recognized)

## CC(C)C[C@H](NC(=O)[C@@H](N)Cc1ccccc1)C(=O)N[C@@H](CC(=O)O)C(=O)N[C@@H](CCC(N)=O)C(=O)N[C@H](C(=O)N1CCC[C@H]1C(=O)N[C@@H](Cc1ccccc1)C(=O)N[C@@H](CO)C(=O)N[C@H](C(=O)O)C(C)C)C(C)C [G9-209-1F2L]
[2]
  recognition and lysis of original epitopes and melanoma tumor cells (624 mel) by PBL stimulated with the peptide, compared with natural epitopes: better
[2]; after 4 stimulations (Table 19)
  % specific lysis by PBL stimulated with the peptide: 63%
[3]; target T2 + G9-209-1F2L, after 4 stimulations
  % specific lysis by PBL stimulated with the peptide: 86%
[3]; target T2 + G9-209, after 4 stimulations
  % specific lysis by PBL stimulated with the peptide: 85%
[3]; target T2, after 4 stimulations (Table 19)
  % specific lysis by PBL stimulated with the peptide: 0%
[4]
  Recognition by G9-209 reactive T-cell: + (+, recognized)
  recognition by the original melanoma reactive T-cells: recognized
[5]
  binding affinity to HLA-A2.1 compared with the natural epitope: higher binding affinity

## CC(C)C[C@H](NC(=O)[C@@H](N)Cc1ccc(O)cc1)C(=O)N[C@@H](CCC(=O)O)C(=O)N1CCC[C@H]1C(=O)NCC(=O)N1CCC[C@H]1C(=O)N[C@H](C(=O)N[C@H](C(=O)O)[C@@H](C)O)C(C)C [G9-280-9V] (H-YLEPGPVT-OH; N-terminus and C-terminus assumed)
[2]
  recognition and lysis of original epitopes and melanoma tumor cells (624 mel) by PBL stimulated with the peptide, compared with natural epitopes: better
[2]; after 4 stimulations (Table 20)
  % specific lysis by PBL stimulated with the peptide: 71%
[3]; target T2 + G9-280-9V, after 4 stimulations
  % specific lysis by PBL stimulated with the peptide: 58%
[3]; target T2 + G9-280, after 4 stimulations
  % specific lysis by PBL stimulated with the peptide: 87%
[3]; target T2, after 4 stimulations (Table 20)
  % specific lysis by PBL stimulated with the peptide: 0%
[4]
  recognition by the original melanoma reactive T-cells: recognized
[4]; 51Cr release, T2 cells preincubated with 1 ug/ml peptide
  Recognition by G9-280 reactive T-cell: + (+, recognized)
[5]
  binding affinity to HLA-A2.1 compared with the natural epitope: higher binding affinity

## CC[C@H](C)[C@H](NC(=O)[C@@H](N)CCCCN)C(=O)N[C@@H](Cc1c[nH]c2ccccc12)C(=O)NCC(=O)N[C@@H](CCC(N)=O)C(=O)N[C@@H](Cc1ccc(O)cc1)C(=O)N[C@@H](Cc1c[nH]c2ccccc12)C(=O)N[C@@H](CCC(N)=O)C(=O)N[C@H](C(=O)O)C(C)C [G9-154-2I] (H-KIWGQYWQV-OH; N-terminus and C-terminus assumed)
[2]
  recognition and lysis of original epitopes and melanoma tumor cells (624 mel) by PBL stimulated with the peptide, compared with natural epitopes: better
[2]; [6]
  % specific lysis by PBL stimulated with the peptide: 23%
[3]; [7]
  % specific lysis by PBL stimulated with the peptide: 38%
[3]; [8]
  % specific lysis by PBL stimulated with the peptide: 37%
[3]; [9]
  % specific lysis by PBL stimulated with the peptide: 1%
[4]
  Recognition by G9-154 reactive T-cell: + (+, recognized)
[5]; modified gp100 G9-154 peptides, read-out: Binding affinity to HLA-A2.1
  IC50: 3 nM
